According to patent publication US8883763B2 (Universite Joseph Fourier, priority 2010, dated 2014):

Key:
HMEC cells = test: Proliferation of HMEC cells (GI50); assay type: cell-based; conditions: Homo sapiens, 120 h, 50 μM to 1 nM for 5 days
Protocol: The HMECs were seeded at 10% confluence and incubated with the molecules at different concentrations (from 50 μM to 1 nM) for 5 days. The GI50 (50% Growth Inhibition) defines the concentration inducing a 50% reduction in proliferation with respect to the control.

bovine brain tubulin = test: In vitro tubulin polymerization test (turbidimetry at 350 nm); assay type: biochemical; conditions: molecules at 50 μM, calculated at t=3000 s, DMSO control = 100%
Protocol: Tubulin was purified from bovine brain using the polymerization-depolymerization process described by (Castoldi M and Popov A V. Protein Expr Purif. 2003, 32(1): pp 83-8).
The in vitro tubulin polymerization tests (at 50 μM) were carried out in the presence of GTP 1 mM in BRB80 buffer (80 mM K-PIPES pH 6.8, 1 mM MgCl2, 1 mM EGTA) at 37° C. The tests were carried out in 96-microwell plates (half-wells) (Costar plates, Corning #3695), in triplicate with a final volume of 70 μl. Tubulin assembly was carried out in the presence of compound 6 or its analogues (all used at a concentration of 50 μM) and was monitored by turbidimetry measurement at 350 nm using a spectrophotometer (Spectramax More, Molecular Devices).
Measurement of the effect of a molecule on polymerization was calculated at t=3000 s taking the value of the control at the same time as being equal to 100%.

HeLa cells = test: Indirect immunofluorescence: effect on HeLa cells (mitotic arrest, microtubule depolymerization); assay type: cell-based, human; design: key to Effect on Hela at 25 μM / Effect on Hela at 100 μM / Effect on Hela at 50 and 100 μM / Effect on Hela at 50 μM: —: −: no activity on the cells at 25 μM (if there is an effect at high concentrations, this is specified in the table).; *: weak activity (MA and/or slight depolymerization of the MTs and/or slight inhibition of proliferation),; **: average activity (MA and/or moderate depolymerization of the MTs and/or moderate inhibition of proliferation),; ***: strong activity (MA and/or pronounced depolymerization of the MTs and/or pronounced inhibition of proliferation),; ****: very strong activity (MA and/or very pronounced depolymerization of the MTs and/or strong inhibition of proliferation); conditions: 24 hours; for Effect on Hela at 25 μM: mitotic index and/or depolymerization of the MTs
Protocol: The cells were cultured on slides in 24-well plates and incubated for 24 hours with molecule 6 at different concentrations from 1 to 10 μM.
Corresponding quantities of DMSO were added to the culture medium in the control wells.
The cells were fixed in a solution of PBS with 4% paraformaldehyde (PFA) and 0.1% glutaraldehyde (GA), for 15 minutes and centrifuged at 300 g for the last 10 minutes of the fixing. The slides were rinsed in PBS and the free aldehyde groups were reduced by two successive 5-minute incubations in PBS containing 1 mg/ml of NaBH4.
After one washing with PBS then another with PBST (PBS with 0.5% triton-X-100), the cells are incubated for 30 minutes at ambient temperature with anti α-tubulin monoclonal antibody solution (DM1A clone, Sigma # T6199) diluted to 1:200 in PBST. After 3 10-minute washings with PBST, the cells are incubated for 30 minutes at ambient temperature in a solution of goat anti-mouse polyclonal antibodies coupled with Alexa 488 (1:1000, Molecular Probes # A-11029) and phalloidin coupled with Texas red to label the actin (1:2000, Molecular Probes # T7471), in PBST also containing Hoechst 33258 (1 μg/ml) for labelling the DNA. After 3 10-minute washings in PBST, the slides are mounted on plates in Fluorsave™ mounting medium (Calbiochem #345789) and are observed and analyzed using an Axiovert 200M inverted fluorescence microscope (Zeiss®). The images are produced with a Plan-Apochromat 63× oil objective (Zeiss®) by means of a Coolsnap HQ camera (Roper Scientifics®) and with Metamorph acquisition software (Universal Imaging™ Corporation).
In order to evaluate the effect of the analogues of compound 6 on PHFs and HeLa cells, the immunofluorescence technique described above was used and adapted to a 96-well dish format. The cells were seeded in glass-bottomed 96-well dishes and incubated for 24 hours in the presence of different concentrations of molecules from 100 μM to 50 nM. And in the same way as described above, the cells were fixed and immunolabelled. Analysis of the phenotypes as well as counting the mitotic cells were carried out with the same microscope but using a ×40 objective (Olympus). The molecules were compared with each other with respect to the mitotic arrest induced on PHFs and HeLa cells at 25 and 0.3 μM.
The mitotic index and/or the depolymerization of the MTs were evaluated at 25 μM.

PP1α (PP1CA) = biological target: T1, PP1α (PP1CA) (Oryctolagus cuniculus, UniProt P62139); test: Protein phosphatase test (PP1 activity, DiFMUP fluorescent substrate); assay type: biochemical; conditions: PP1CA at 80 mU, fluorescent substrate (50 μM), molecules from 50 μM to 50 nM; read-out: PP1 Inhibition IC50
T1 construct: purchased New England Biolabs P0754
Protocol: FIG. 13 presents the graph showing the inhibition of the PP1Cα activity by compound 6 in vitro. PP1Cα (New England Biolabs, 30 mU/well) was incubated in the presence of compound 6 at different concentrations and a fluorescent substrate, diFMUP.
Determination of the 1050 was carried out with PP1CA at 80 mU in the presence of a fluorescent substrate
(50 μM) and different concentrations of molecules from 50 μM to 50 nM.
For the activity tests, PP1α (New England Biolabs # P0754) was used at a final concentration of 30 mU or 80 mU for the screening of all the analogues. 6,8-difluoro-4-methylumbelliferyl phosphate (DiFMUP, Invitrogen # D6567) was used as fluorescent substrate at a concentration of […]. All the tests were carried out in a final volume of 100 μl, at 37° C. in 96-microwell plates (Greiner #655096).
Compound 6, combretastatin A4 (CA-4) as well as all the analogues were diluted in 50 μl of PP1 buffer (100 mM Tris-HCl, pH 7.5, 4 mM DTT, 0.2 mM EDTA, 0.5 mM MnCl2) from 50 μM to 50 nM. Corresponding quantities of DMSO were added to control wells. PP1α (30 or 80 mU in 30 μl of PP1 buffer) was added to each well. After incubating for 15 minutes at AT, the substrate was added (in 20 μl of PP1 buffer). After incubating for 20 minutes at 37° C., the fluorescence was measured in a plate fluorometer at 355-460 nm in order to assay the phosphatase activity. The test was carried out three times in duplicate for each condition.

T1 sequence (P62139 whole entry): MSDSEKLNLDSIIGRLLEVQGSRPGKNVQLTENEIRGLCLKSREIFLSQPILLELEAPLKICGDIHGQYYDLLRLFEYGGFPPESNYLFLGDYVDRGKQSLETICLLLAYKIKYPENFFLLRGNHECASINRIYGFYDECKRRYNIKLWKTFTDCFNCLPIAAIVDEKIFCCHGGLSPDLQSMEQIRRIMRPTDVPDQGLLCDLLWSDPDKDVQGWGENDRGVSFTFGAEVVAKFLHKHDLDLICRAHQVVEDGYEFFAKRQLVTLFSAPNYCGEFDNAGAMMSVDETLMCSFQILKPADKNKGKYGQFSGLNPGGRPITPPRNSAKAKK

Compound	IC50 (PP1α (PP1CA)) [µM]	GI50 (HMEC cells) [µM]	Tubulin polymerization inhibition (bovine brain tubulin)	Effect on Hela at 25 μM (HeLa cells)	Effect on Hela at 50 and 100 μM (HeLa cells)
O=c1[nH]c(-c2ccc(O)cc2)cc2ccc(O)cc12 [Compound 57, 7-Hydroxy-3-(4-hydroxyphenyl)isoquinoline-1(2H)-one]	> 50	1 to 25	+ ((+) signifies that the molecule induces tubulin assembly inhibition in vitro comprised between 6 and 25% of the DMSO control.)	***	
COc1ccc(-c2cc3ccc(OC)cc3c(=O)[nH]2)cc1 [Compound 4, 7-methoxy-3-(4-methoxyphenyl)isoquinolin-1(2H)-one]	> 50	> 50	— ((−) signifies that the molecule induces little or no tubulin assembly inhibition in vitro: 0+ or − −5% of the DMSO control.)	—	**
COc1ccc(-c2cc3ccc(OC)cc3c(OC)n2)cc1 [Compound 64, 1,7-Dimethoxy-3-(4-methoxyphenyl)isoquinoline]	10 to 24	> 50	— ((−) signifies that the molecule induces little or no tubulin assembly inhibition in vitro: 0+ or − −5% of the DMSO control.)	—	
COc1ccc(-c2[nH]c(=O)c3cc(OC)ccc3c2O)cc1 [Compound 41, 4-Hydroxy-7-methoxy-3-(4-methoxyphenyl)isoquinolin-1(2H)-one]	> 50	1 to 25	— ((−) signifies that the molecule induces little or no tubulin assembly inhibition in vitro: 0+ or − −5% of the DMSO control.)	—	
COc1ccc(-c2cc3ccc(OC)cc3c(=O)n2C)cc1 [Compound 65, 7-Methoxy-3-(4-methoxyphenyl)-2-methylisoquinoline-1(2H)-one]	≥ 50	1 to 25	+ ((+) signifies that the molecule induces tubulin assembly inhibition in vitro comprised between 6 and 25% of the DMSO control.)	*	
COc1ccc(-c2cc3ccc(OC)cc3c(=O)n2CCO)cc1 [Compound 67, 2-(2-Hydroxyethyl)-7-methoxy-3-(4-methoxyphenyl)isoquinoline-1(2H)-one]	25 to 50	25 to 50	— ((−) signifies that the molecule induces little or no tubulin assembly inhibition in vitro: 0+ or − −5% of the DMSO control.)	—	
COc1ccc2c(NC=O)c(-c3ccccc3)[nH]c(=O)c2c1 [Compound 9, N-(7-Methoxy-1-oxo-3-phenyl-1,2-dihydroisoquinoline-4-yl)methanamide]	> 50	25 to 50	— ((−) signifies that the molecule induces little or no tubulin assembly inhibition in vitro: 0+ or − −5% of the DMSO control.)	—	**
COc1ccc2c([N+](=O)[O-])c(-c3ccc(C#CC(C)(C)O)cc3)[nH]c(=O)c2c1 [Compound 59]	25 to 50	> 50	— ((−) signifies that the molecule induces little or no tubulin assembly inhibition in vitro: 0+ or − −5% of the DMSO control.)	—	
COc1ccc(-c2[nH]c(=O)c3cc(OC)ccc3c2Cl)cc1 [Compound 14, 4-Chloro-7-methoxy-3-(4-methoxyphenyl)isoquinoline-1(2H)-one]	> 50	25 to 50	+++ ((+++) signifies that the molecule induces tubulin assembly inhibition in vitro of more than 50% with respect to the DMSO control.)	—	

More lines, main results first:

IC50 (PP1α (PP1CA)) [µM]	Compound	GI50 (HMEC cells) [µM]	Tubulin polymerization inhibition (bovine brain tubulin)	Effect on Hela at 25 μM (HeLa cells)	Effect on Hela at 50 and 100 μM (HeLa cells)
> 50	COc1ccc(-c2nc(N)c3cc(OC)ccc3c2[N+](=O)[O-])cc1 [Compound 71, 1-Amino-7-methoxy-3-(4-methoxyphenyl)-4-nitroisoquinoline]	25 to 50	+ ((+) signifies that the molecule induces tubulin assembly inhibition in vitro comprised between 6 and 25% of the DMSO control.)	—	
10 to 24	COc1ccc2c([N+](=O)[O-])c(-c3ccc(OC(=O)OC(C)(C)C)cc3)[nH]c(=O)c2c1 [Compound 73, tert-butyl 4-(7-methoxy-4-nitro-1-oxo-1,2-dihydroisoquinolin-3-yl)phenyl carbonate]	1 to 25	— ((−) signifies that the molecule induces little or no tubulin assembly inhibition in vitro: 0+ or − −5% of the DMSO control.)	***	
10 to 24	COc1ccc(COc2nc(-c3ccc(OC)cc3)c(C(F)(F)F)c3ccc(OC)cc23)cc1 [Compound 70, 7-Methoxy-1-(4-methoxybenzyloxy)-3-(4-methoxyphenyl)-4-(trifluoromethyl)isoquinoline]	25 to 50	+ ((+) signifies that the molecule induces tubulin assembly inhibition in vitro comprised between 6 and 25% of the DMSO control.)	—	
10 to 24	COc1ccc2c([N+](=O)[O-])c(-c3ccc(O)cc3)[nH]c(=O)c2c1 [Compound 72, 3-(4-hydroxyphenyl)-7-methoxy-4-nitroisoquinolin-1(2H)-one]	0.1 to 1	++ ((++) signifies that the molecule induces tubulin assembly inhibition in vitro comprised between 26 and 50% of the DMSO control.)	****	
> 50	COc1ccc(-c2c([N+](=O)[O-])c3ccc(OC)cc3c(=O)n2CCO)cc1 [Compound 68, 2-(2-Hydroxyethyl)-7-methoxy-3-(4-methoxyphenyl)-4-nitroisoquinoline-1(2H)-one]	25 to 50	— ((−) signifies that the molecule induces little or no tubulin assembly inhibition in vitro: 0+ or − −5% of the DMSO control.)	—	
